From ChEMBL document CHEMBL1201862, “PubChem BioAssay data set” (2004)
The source made the active and inactive calls.

What was measured:
[1] = inhibition of ARNT PAS-B/TACC3 complex formation – biochemical, AlphaScreen, cherry-picked samples, confirmation (AID 651703); assay type: functional, Homo sapiens;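 further: His-tagged ARNT PAS-B domain paired with GST-TACC3 E629A dimer coactivator fragment; potency of inhibitors that break up the complex and lower AlphaScreen signal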
cells = assay type: functional
[2] = target: T1, Ubiquitin-conjugating enzyme E2 N (Homo sapiens, UniProt P61088); assay type: functional
T1 sequence (P61088 whole entry): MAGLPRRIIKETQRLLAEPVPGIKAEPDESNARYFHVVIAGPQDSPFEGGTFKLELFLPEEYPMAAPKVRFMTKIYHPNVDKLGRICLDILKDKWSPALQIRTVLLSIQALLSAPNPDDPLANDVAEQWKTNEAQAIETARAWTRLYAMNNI

[3] = target: Intestinal-type alkaline phosphatase (Mus musculus, UniProt P24822); assay: PubChem AID 488785; assay type: functional
Insulin-degrading enzyme [4] = target: T2, Insulin-degrading enzyme (Homo sapiens, UniProt P14735); assay: recombinant IDE activation, cell-free – biochemical, fluorescence polarization, counter-screen for IDE activator project, dose response (AID 588681)
T2 sequence (P14735 whole entry): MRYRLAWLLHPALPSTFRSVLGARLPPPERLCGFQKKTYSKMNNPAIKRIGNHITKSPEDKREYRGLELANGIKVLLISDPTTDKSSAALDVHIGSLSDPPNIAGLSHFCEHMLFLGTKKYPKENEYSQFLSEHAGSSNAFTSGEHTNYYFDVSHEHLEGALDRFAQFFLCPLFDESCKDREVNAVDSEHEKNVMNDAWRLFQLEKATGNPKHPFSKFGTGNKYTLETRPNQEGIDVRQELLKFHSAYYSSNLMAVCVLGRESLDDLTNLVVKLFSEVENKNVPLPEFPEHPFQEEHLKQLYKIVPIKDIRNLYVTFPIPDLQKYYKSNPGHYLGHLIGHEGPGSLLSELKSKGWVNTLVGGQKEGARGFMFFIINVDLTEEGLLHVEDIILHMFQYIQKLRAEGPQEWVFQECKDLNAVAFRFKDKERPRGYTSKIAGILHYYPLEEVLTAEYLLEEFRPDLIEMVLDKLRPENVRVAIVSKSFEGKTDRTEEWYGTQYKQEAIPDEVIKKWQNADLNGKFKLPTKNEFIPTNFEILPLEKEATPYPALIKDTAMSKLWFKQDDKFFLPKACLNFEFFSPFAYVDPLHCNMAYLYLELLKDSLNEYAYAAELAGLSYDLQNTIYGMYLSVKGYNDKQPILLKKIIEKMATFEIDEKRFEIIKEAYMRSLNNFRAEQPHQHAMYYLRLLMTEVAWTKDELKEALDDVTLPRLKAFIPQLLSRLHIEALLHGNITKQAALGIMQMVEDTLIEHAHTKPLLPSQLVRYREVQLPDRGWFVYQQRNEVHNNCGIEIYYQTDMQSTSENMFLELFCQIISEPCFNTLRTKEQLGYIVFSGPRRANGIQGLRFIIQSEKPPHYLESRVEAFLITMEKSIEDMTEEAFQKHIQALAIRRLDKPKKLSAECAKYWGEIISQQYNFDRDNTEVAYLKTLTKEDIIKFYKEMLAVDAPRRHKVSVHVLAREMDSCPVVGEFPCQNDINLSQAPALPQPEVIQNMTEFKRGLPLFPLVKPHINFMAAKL

[5] = target: T3, Alkaline phosphatase, tissue-nonspecific isozyme (Homo sapiens, UniProt P05186); assay: TNAP enzyme inhibition by screening hits, dose response, selectivity assay for mouse IAP inhibitor project, biochemical, human TNAP, uHTS hits (AID 488906); assay type: functional
T3 sequence (P05186 whole entry): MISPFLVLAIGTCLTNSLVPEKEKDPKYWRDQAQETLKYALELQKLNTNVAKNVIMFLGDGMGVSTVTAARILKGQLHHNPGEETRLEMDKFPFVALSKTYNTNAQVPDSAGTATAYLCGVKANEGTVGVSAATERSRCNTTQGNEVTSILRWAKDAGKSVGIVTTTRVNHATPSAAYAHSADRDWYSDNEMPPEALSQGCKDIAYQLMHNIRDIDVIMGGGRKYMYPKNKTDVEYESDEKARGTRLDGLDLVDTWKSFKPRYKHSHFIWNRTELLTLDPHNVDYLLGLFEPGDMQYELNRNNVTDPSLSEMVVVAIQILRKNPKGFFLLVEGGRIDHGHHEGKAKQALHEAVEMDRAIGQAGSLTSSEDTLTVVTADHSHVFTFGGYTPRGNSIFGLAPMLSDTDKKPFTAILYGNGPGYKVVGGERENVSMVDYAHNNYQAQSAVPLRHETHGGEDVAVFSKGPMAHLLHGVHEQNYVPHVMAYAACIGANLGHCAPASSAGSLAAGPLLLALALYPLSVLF

Insulin-degrading enzyme [6] = target: T2, Insulin-degrading enzyme; assay: cellular IDE activation of Abeta substrate cleavage – fluorescence polarization, HEK cells, dose response (AID 588439); assay type: functional, cell-based
HEK293 [7] = assay: membrane integrity loss in HEK cells – cell-based, fluorescence, cytotoxicity control for IDE activator project, dose response (AID 588440); assay type: functional; details: Homo sapiens;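 further: cytotoxicity by LDH release measuring loss of membrane integrity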
[8] = target: T1, Ubiquitin-conjugating enzyme E2 N; assay type: functional; remark: listed apart in the source
[9] = target: Intestinal-type alkaline phosphatase (Homo sapiens, UniProt P09923); assay: inhibition of human intestinal alkaline phosphatase – biochemical, dose response (AID 488876); assay type: functional
HEK293 [10] = assay: optical interference in Abeta FP readout, dose response, artefact control for IDE activator project, biochemical, fluorescence polarization (AID 588442); assay type: functional, cell-based; details: Homo sapiens
Bcl-2-related protein A1 = target: T4, Bcl-2-related protein A1 (Mus musculus, UniProt Q07440); assay type: functional;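 further: confirmatory dose–response counterscreen on Bfl-1, used to check hits from a UBC13 polyubiquitin inhibitor campaign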
T4 sequence (Q07440 whole entry): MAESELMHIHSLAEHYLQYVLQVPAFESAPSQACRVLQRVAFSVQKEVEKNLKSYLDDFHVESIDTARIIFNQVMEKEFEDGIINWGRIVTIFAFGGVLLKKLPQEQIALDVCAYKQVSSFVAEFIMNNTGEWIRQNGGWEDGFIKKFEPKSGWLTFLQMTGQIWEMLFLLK

[11] = bead-based luminescence quenchers, dual-tagged ARNT – biochemical, AlphaScreen, cherry-pick, artefact control for ARNT-TACC3 interaction inhibitor project, dose response (AID 651705); assay type: functional;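 further: AlphaScreen bead proximity signal that flags compounds interfering with the detection technology; potency reflects signal decrease which marks the compound as an assay artifact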
Beta-lactamase [12] = target: Beta-lactamase (Pseudomonas aeruginosa, UniProt Q79MP6);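 further: biochemical dose-response test of metallo-beta-lactamase enzyme inhibition, read out by epi-absorbance; purified recombinant IMP-1 metallo-beta-lactamase with nitrocefin as substrate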
[13] = target: 26S proteasome non-ATPase regulatory subunit 14 (Homo sapiens, UniProt O00487); assay: inhibition of proteasome subunit RPN11 – biochemical, fluorescence polarization, uHTS hits, confirmation (AID 602368); assay type: functional
Beta-lactamase [14] = target: Beta-lactamase (Salmonella choleraesuis (strain SC-B67), UniProt Q5J463)
[15] = target: T5, Low molecular weight phosphotyrosine protein phosphatase (Homo sapiens, UniProt P24666); assay type: functional; details: read-out: IC50_Mean
T5 sequence (P24666 whole entry): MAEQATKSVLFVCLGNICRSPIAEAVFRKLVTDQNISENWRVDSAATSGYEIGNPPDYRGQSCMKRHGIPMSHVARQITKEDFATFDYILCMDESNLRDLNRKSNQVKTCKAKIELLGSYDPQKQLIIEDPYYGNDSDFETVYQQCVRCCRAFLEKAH

[16] = target: T5, Low molecular weight phosphotyrosine protein phosphatase; assay type: functional; details: read-out: IC50_Mean; remark: listed apart in the source
Beta Lactamase = Beta Lactamase (Pseudomonas aeruginosa, UniProt Q932Y6);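 further: confirmatory high-throughput screen measuring VIM-2 metallo-beta-lactamase inhibition by epi-absorbance in dose response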
Prothrombin = Prothrombin (Bos taurus, UniProt P00735); assay: thrombin protease inhibitors – biochemical, fluorescence polarization, uHTS hits, dose response (AID 602369); assay type: functional
[17] = target: 72 kDa type IV collagenase (Homo sapiens, UniProt P08253); assay: Dose Response validation of uHTS RPN11 inhibitor hits using a MMP-2 Fluorescence assay.; assay type: functional
[18] = target: T6, Small ubiquitin-related modifier 1 (Homo sapiens, UniProt P63165); assay: SUMO1 protein interaction blockers, potency – biochemical, fluorescence polarization, uHTS hits, dose response (AID 624382); assay type: functional; details: read-out: IC50_Mean
[19] = target: T6, Small ubiquitin-related modifier 1; assay: SUMO1 protein-protein binding blockers, potency – biochemical, FRET, dose response (AID 624383); assay type: functional; details: read-out: IC50_Mean
[20] = target: T7, Corticotropin-releasing factor receptor 2/Corticotropin-releasing factor-binding protein (Homo sapiens, UniProt P24387+Q13324); assay: Dose Response confirmation of uHTS hits for small molecule antagonists of the CRF-binding protein and CRF-R2 receptor complex.; assay type: functional; details: read-out: IC50_Mean
T7 sequence (Q13324 whole entry): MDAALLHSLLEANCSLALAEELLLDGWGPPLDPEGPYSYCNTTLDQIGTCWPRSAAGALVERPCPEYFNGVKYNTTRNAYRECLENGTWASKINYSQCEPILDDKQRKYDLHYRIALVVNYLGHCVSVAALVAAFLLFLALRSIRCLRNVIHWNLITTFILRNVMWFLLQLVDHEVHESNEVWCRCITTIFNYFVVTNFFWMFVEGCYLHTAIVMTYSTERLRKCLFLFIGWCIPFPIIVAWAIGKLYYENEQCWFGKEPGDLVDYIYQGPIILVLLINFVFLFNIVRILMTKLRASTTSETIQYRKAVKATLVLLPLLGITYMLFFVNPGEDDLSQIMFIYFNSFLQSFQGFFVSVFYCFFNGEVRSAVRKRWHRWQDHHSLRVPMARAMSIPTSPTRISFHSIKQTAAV
T7 sequence (P24387 whole entry): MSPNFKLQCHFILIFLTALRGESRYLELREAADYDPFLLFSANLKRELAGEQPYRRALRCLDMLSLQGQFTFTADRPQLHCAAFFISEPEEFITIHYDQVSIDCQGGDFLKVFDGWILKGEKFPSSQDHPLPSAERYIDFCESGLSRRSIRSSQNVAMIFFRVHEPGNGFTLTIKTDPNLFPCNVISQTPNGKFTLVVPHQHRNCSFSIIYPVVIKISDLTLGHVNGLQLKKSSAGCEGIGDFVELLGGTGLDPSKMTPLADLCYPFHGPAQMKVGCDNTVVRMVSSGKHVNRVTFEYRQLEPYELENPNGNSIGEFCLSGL

[21] = target: T8, Small ubiquitin-related modifier 2 (Homo sapiens, UniProt P61956); assay: disruption of SUMO2 interaction with SIM peptide – biochemical, fluorescence polarization, uHTS hits, selectivity assay for SUMO1 interaction inhibitor project, dose response (AID 624385); assay type: functional; details: read-out: IC50_Mean
Genome polyprotein = Genome polyprotein (dengue virus type 2, UniProt P29990); assay: flavivirus cap methylation enzyme inhibition – biochemical, confirmation dose response, primary screen (AID 588689); assay type: functional
[22] = target: T8, Small ubiquitin-related modifier 2; assay: SUMO2 binding disruption by SUMO1 hits – biochemical, FRET, human SUMO2, uHTS hits, selectivity assay for SUMO1 interaction inhibitor project, dose response (AID 624384); assay type: functional; details: read-out: IC50_Mean
[23] = target: T7, Corticotropin-releasing factor receptor 2/Corticotropin-releasing factor-binding protein; assay: activators of CRF receptor 2 with binding protein – uHTS hits, confirmation (AID 602473); assay type: functional; details: read-out: EC50_Mean

T8 sequence (P61956 whole entry): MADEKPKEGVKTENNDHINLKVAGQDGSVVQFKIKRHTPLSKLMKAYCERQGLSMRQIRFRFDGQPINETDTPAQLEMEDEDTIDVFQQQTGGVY
T6 sequence (P63165 whole entry): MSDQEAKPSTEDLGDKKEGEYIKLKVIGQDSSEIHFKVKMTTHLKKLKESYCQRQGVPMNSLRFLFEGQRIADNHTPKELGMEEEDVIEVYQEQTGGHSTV
Sequence of Intestinal-type alkaline phosphatase (Mus musculus, UniProt P24822) (P24822 whole entry): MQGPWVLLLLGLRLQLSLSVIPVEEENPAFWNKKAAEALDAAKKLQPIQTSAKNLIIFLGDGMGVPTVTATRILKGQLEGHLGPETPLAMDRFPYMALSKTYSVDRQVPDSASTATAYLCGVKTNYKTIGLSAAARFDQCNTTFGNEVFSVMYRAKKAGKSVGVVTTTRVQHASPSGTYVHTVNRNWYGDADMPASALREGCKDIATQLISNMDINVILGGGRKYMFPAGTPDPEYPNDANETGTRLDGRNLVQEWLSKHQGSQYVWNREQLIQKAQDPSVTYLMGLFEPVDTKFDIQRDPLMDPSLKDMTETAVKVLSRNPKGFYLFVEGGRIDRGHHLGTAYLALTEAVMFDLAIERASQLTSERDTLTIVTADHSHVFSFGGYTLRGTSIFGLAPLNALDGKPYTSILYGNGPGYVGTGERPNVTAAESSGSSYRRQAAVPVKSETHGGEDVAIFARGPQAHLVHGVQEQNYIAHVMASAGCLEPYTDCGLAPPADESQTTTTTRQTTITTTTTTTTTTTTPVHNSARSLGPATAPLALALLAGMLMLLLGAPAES
Sequence of 26S proteasome non-ATPase regulatory subunit 14 (O00487 whole entry): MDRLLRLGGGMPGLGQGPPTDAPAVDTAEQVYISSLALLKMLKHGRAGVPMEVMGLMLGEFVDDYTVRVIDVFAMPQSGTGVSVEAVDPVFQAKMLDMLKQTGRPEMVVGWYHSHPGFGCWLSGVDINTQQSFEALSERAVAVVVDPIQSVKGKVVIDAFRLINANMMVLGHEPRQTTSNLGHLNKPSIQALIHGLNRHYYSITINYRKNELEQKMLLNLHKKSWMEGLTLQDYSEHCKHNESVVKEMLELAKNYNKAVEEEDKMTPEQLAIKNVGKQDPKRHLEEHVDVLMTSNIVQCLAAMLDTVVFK
Sequence of Beta-lactamase (Salmonella choleraesuis (strain SC-B67), UniProt Q5J463) (Q5J463 whole entry): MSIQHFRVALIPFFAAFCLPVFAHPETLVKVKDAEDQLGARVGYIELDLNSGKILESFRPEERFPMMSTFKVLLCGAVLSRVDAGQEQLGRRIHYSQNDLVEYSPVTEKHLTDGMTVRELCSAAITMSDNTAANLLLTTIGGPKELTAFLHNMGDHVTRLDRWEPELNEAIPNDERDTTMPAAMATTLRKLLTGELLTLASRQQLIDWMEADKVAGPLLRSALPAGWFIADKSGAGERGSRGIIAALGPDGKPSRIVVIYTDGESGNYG
Sequence of Beta Lactamase (Q932Y6 whole entry): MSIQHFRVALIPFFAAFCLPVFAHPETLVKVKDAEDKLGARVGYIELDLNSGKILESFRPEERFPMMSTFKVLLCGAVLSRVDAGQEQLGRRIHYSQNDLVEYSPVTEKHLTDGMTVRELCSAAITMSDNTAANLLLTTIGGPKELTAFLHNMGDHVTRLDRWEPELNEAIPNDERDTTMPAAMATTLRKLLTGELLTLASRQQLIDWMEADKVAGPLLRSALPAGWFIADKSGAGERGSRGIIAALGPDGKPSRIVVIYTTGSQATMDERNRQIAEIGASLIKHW
Sequence of Beta-lactamase (Pseudomonas aeruginosa, UniProt Q79MP6) (Q79MP6 whole entry): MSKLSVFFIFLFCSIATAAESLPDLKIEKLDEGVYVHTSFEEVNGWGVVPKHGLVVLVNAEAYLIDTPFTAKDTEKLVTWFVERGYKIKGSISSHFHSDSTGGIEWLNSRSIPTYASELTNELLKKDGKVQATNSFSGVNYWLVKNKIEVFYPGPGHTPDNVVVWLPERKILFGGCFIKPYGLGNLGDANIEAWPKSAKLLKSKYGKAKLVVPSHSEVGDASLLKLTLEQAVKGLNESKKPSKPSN
Sequence of 72 kDa type IV collagenase (P08253 whole entry): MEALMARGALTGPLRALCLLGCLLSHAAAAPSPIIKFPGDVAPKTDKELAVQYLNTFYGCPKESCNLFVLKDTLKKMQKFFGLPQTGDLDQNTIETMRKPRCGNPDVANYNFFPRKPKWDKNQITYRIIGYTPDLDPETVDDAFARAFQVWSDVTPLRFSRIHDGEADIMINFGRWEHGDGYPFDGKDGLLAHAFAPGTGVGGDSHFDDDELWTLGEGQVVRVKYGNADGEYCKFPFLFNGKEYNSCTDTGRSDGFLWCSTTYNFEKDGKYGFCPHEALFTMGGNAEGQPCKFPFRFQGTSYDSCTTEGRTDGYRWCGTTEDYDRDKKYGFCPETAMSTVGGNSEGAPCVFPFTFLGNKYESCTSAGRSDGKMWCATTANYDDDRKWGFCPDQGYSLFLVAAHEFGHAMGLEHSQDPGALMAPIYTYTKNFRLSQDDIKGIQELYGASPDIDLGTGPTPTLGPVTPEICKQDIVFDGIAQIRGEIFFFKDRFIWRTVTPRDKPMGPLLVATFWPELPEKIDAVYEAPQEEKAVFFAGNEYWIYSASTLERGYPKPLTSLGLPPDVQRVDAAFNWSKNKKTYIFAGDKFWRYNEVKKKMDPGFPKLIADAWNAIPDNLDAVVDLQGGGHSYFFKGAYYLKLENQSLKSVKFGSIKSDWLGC
Sequence of Intestinal-type alkaline phosphatase (Homo sapiens, UniProt P09923) (P09923 whole entry): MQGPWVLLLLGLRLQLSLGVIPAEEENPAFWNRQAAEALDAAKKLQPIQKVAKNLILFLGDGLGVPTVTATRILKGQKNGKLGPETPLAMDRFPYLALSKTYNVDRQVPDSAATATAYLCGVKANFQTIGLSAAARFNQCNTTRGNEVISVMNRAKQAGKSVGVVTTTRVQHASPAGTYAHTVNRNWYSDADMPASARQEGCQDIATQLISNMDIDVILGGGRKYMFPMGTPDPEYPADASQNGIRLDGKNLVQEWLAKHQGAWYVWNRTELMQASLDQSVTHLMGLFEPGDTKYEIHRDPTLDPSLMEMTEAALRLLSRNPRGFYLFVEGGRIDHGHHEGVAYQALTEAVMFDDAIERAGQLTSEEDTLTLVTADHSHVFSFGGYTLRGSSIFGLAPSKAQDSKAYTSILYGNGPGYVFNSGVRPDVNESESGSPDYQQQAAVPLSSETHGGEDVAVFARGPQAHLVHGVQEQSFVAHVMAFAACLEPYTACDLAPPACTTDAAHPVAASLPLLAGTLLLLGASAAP
Sequence of Genome polyprotein (P29990 2492-3391 limits assumed): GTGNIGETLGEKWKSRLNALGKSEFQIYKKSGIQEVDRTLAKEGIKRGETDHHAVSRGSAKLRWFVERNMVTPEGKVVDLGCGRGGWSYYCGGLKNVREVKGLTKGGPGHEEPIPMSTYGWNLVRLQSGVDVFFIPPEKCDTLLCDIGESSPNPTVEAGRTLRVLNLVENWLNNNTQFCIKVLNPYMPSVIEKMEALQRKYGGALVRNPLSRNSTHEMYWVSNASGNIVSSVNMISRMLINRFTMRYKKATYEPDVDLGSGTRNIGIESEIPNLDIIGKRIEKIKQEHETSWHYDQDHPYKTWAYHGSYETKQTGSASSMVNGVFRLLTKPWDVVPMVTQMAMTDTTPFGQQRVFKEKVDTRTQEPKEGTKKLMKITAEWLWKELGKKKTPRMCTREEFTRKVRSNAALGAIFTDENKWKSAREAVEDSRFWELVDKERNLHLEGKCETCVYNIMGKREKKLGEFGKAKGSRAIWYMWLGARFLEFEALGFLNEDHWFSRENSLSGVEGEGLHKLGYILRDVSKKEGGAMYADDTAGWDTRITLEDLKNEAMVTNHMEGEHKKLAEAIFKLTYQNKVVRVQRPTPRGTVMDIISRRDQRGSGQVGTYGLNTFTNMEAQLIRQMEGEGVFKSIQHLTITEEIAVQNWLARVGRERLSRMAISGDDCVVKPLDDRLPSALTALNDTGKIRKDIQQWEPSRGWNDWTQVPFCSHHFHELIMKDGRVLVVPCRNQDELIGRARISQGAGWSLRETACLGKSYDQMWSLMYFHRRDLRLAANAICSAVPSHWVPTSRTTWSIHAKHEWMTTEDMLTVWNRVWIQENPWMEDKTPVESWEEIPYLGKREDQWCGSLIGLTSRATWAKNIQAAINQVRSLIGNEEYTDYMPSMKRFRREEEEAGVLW

**Q.** Which AC50 [1] does the source give for `Cc1nnc(N/N=C/c2ccc(-c3ccc(Br)cc3)o2)n1N` here?
**A.** 127 µM (active)

**Q.** What about the IC50 (cells) of the same compound?
**A.** 9.58 µM (active)

**Q.** Which IC50 [2] does the source give for `C#CCOCCOCCOCCNc1nc(N2CCN(C(=O)CCCCCCCCCCNC(=O)Cn3cc(CCCCCN)nn3)CC2)nc(N2CCN(C(=O)CCCCCCCCCCNC(=O)[C@@H](CCSC)n3cc(CCO)nn3)CC2)n1` here?
**A.** 6.59 µM (active)

**Q.** What about the IC50 [3] of the same compound?
**A.** 6.92 µM (active)

**Q.** And the EC50 (Insulin-degrading enzyme [4])?
**A.** > 54.7 µM (inactive)

**Q.** What about the IC50 [5] of the same compound?
**A.** > 100 µM (inactive)

**Q.** And the EC50 (Insulin-degrading enzyme [6])?
**A.** > 6.08 µM (active)

**Q.** And the IC50 (HEK293 [7])?
**A.** 14.5 µM (inactive)

**Q.** What about the IC50 [8] of the same compound?
**A.** 4.6 µM (active)

**Q.** And the IC50 [9]?
**A.** > 100 µM (inactive)

**Q.** And the EC50 (HEK293 [10])?
**A.** > 54.7 µM (inactive)

**Q.** What about the IC50 (Bcl-2-related protein A1) of the same compound?
**A.** 18.5 µM (active)

**Q.** With `COc1ccc(CCNC(=O)C23CCC(C)(C(=O)C2Br)C3(C)C)cc1OC` (stereo not drawn) as the compound, how does the AC50 [11] read?
**A.** 129 µM (active)

**Q.** Which IC50 (Beta-lactamase [12]) does the source give for `COc1ccc(C(=O)Nc2ccc(/C(C)=N/NC(=O)c3ccncc3)cc2)cc1` here?
**A.** 10.9 µM (inactive)

**Q.** And the IC50 [13]?
**A.** 43 µM (active)

**Q.** And the IC50 (Beta-lactamase [14])?
**A.** > 59.6 µM (inactive)

**Q.** And the IC50 [15]?
**A.** 8.92 µM (active)

**Q.** And the IC50 [16]?
**A.** > 80 µM (inactive)

**Q.** And the IC50 (Beta Lactamase)?
**A.** > 59.6 µM (inactive)

**Q.** And the IC50 (Prothrombin)?
**A.** > 100 µM (inactive)

**Q.** What about the IC50 [17] of the same compound?
**A.** > 100 µM (inactive)

**Q.** What does the source list for `O=C(Nc1cc(C(=O)Nc2ccccc2C(=O)O)cc(C(=O)Nc2ccccc2C(=O)O)c1)c1ccccc1`?
**A.** IC50 [18]: 1.19 µM (active); IC50 [19]: 7.45 µM (active); IC50 [20]: > 47.1 µM (inactive); IC50 [21]: 4.03 µM (active); IC50 (Genome polyprotein): 12.7 µM (active); IC50 [22]: 10.7 µM (active); EC50 [23]: > 53 µM (inactive)
